Patent US9303016B2, “Derivatives of aza adamantane and uses thereof” (CONNEXIOS LIFE SCIENCES PVT. LTD., priority 2011, dated 2016)
pIC50: −log10 of the molar value.

Assays:
[1] = target: T1, human full length HSD11β1 (Homo sapiens, UniProt P28845); assay: In Vitro HSD11β1 Inhibition Assay; assay type: cell-based; details: CHO cells transiently expressing human HSD11β1; 200 nM cortisone+500 uM NADPH overnight; cortisone to cortisol by LC/MS-MS; read-out: 11βHSD1 (IC50)
T1 construct: transient expression of human full length HSD11β1 expression vector; host or cells: CHO cells, transient transfection
T1 sequence (P28845 whole entry): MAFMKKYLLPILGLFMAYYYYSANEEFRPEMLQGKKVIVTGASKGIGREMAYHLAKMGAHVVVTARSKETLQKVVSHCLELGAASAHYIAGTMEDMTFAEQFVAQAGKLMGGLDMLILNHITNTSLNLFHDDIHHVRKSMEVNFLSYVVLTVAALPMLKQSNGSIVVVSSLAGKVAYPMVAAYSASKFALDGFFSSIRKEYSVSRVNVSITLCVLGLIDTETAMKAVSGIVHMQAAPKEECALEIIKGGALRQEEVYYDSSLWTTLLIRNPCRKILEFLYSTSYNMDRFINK
Outline: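 Whole-cell assay in CHO cells transiently transfected with full-length human HSD11β1, re-seeded 24 h after transfection. Cells incubated overnight with 200 nM cortisone plus 500 uM NADPH, with or without inhibitor. Cortisone-to-cortisol conversion measured by LC/MS-MS; IC50 (nM) from an 8-point log concentration-inhibition curve.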

[2] = phase IIa, 28-days, placebo-controlled, two-step hyperinsulinemic clamp studies; cited from earlier work

pIC50 [1] | Compound | safety and tolerability [2]
< 6.60 | CC(CC(=O)N1C2CC3CC1CC(C(=O)O)(C3)C2)c1c[nH]c2cccc(-c3ccc(F)cc3)c12 (stereo not drawn) [Example 62, 2-{3-[4-(4-fluorophenyl)-1H-indol-3-yl]butanoyl}-2-azatricyclo[3.3.1.1^3,7]decane-5-carboxylic acid] | –
< 6.60 | CC(CC(=O)N1C2CC3CC1CC(C(=O)NCc1ccc(C(=O)O)cc1)(C3)C2)c1c[nH]c2cccc(C3CC3)c12 (stereo not drawn) [Example 63, 4-{[({2-[3-(4-cyclopropyl-1H-indol-3-yl)butanoyl]-2-azatricyclo[3.3.1.1^3,7]dec-5-yl}carbonyl)amino]methyl}benzoic acid] | –
6.82 to 7.00 | CCC(CC(=O)N1C2CC3CC1CC(O)(C3)C2)c1c[nH]c2ccccc12 (stereo not drawn) [Example 64, 1-(5-hydroxy-2-azatricyclo[3.3.1.1^3,7]dec-2-yl)-3-(1H-indol-3-yl)pentan-1-one] | –
6.60 to 6.70 | CC(CC(=O)N1C2CC3CC1CC(C#N)(C3)C2)c1c[nH]c2ccccc12 (stereo not drawn) [Example 65] | –
< 6.60 | O=C(CC(c1c[nH]c2ccccc12)C1CC1)N1C2CC3CC1CC(O)(C3)C2 (stereo not drawn) [Example 66, 3-cyclopropyl-1-(5-hydroxy-2-azatricyclo[3.3.1.1^3,7]dec-2-yl)-3-(1H-indol-3-yl)propan-1-one] | –
6.82 to 7.00 | O=C(CC(c1ccccc1)c1c[nH]c2ccccc12)N1C2CC3CC1CC(O)(C3)C2 (stereo not drawn) [Example 67, 1-(5-hydroxy-2-azatricyclo[3.3.1.1^3,7]dec-2-yl)-3-(1H-indol-3-yl)-3-phenylpropan-1-one] | –
< 6.60 | CC(CC(=O)N1C2CC3CC1CC(O)(C3)C2)c1c[nH]c2ccc(Cl)cc12 (stereo not drawn) [Example 68, 3-(5-chloro-1H-indol-3-yl)-1-(5-hydroxy-2-azatricyclo[3.3.1.1^3,7]dec-2-yl)butan-1-one] | –
6.82 to 7.00 | CC(CC(=O)N1C2CC3CC1CC(O)(C3)C2)c1c[nH]c2cc(Cl)ccc12 (stereo not drawn) [Example 69, 3-(6-chloro-1H-indol-3-yl)-1-(5-hydroxy-2-azatricyclo[3.3.1.1^3,7]dec-2-yl)butan-1-one] | –
6.70 to 6.82 | Cc1cccc2[nH]cc(C(C)CC(=O)N3C4CC5CC3CC(C#N)(C5)C4)c12 (stereo not drawn) [Example 70, 2-[3-(4-methyl-1H-indol-3-yl)butanoyl]-2-azatricyclo[3.3.1.1^3,7]decane-5-carbonitrile] | –
< 6.60 | O=C(CC(c1ccc(Cl)cc1)c1c[nH]c2ccccc12)N1C2CC3CC1CC(O)(C3)C2 (stereo not drawn) [Example 71, 3-(4-chlorophenyl)-1-(5-hydroxy-2-azatricyclo[3.3.1.1^3,7]dec-2-yl)-3-(1H-indol-3-yl)propan-1-one] | –
< 6.60 | Cc1cccc2[nH]cc(C(CC(=O)N3C4CC5CC3CC(O)(C5)C4)c3ccccc3)c12 (stereo not drawn) [Example 72, 1-(5-hydroxy-2-azatricyclo[3.3.1.1^3,7′]dec-2-yl)-3-(4-methyl-1H-indol-3-yl)-3-phenylpropan-1-one] | –
– | CNC(=O)c1ccc(-c2ccc(C3(C(=O)N4CC[C@@]5(C4)OC(=O)c4ccccc45)CC3)cc2)cn1 [INCB13739] | safe and well tolerated
